Measurements reported in US9115101B2 (Genentech, Inc., priority 2012, dated 2015).

These compounds were tested against T1, RORc ligand binding domain (Homo sapiens, UniProt P51449) (assay: In Vitro RORc Ligand Binding Assay (25-[3H]hydroxycholesterol radioligand filtration)). Settings: In Vitro RORc Ligand Binding Assay; Table 4; read-out: RORc IC50.
T1 construct: host or cells: E. coli
T1 sequence (P51449 269-508 limits assumed): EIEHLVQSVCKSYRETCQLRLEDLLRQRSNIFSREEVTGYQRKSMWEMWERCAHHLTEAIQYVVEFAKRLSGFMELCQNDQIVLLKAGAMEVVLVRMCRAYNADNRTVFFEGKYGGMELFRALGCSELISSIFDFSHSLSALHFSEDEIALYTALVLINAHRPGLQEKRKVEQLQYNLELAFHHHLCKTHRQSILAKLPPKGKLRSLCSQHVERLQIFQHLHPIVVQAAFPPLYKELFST

Structure (SMILES)	IC50 [µM]
COc1ccccc1C1CC[C@H](C)N(Cc2ccc(N3CCN(C(C)=O)CC3)cc2F)S1(=O)=O (single isomer, unassigned) [Example 223]	0.135
COc1ccccc1C1CC[C@H](C)N(Cc2ccc(N3CCN(C(C)=O)CC3)cc2F)S1(=O)=O (single isomer, unassigned) [Example 224]	0.062
CC[C@H]1CCC(c2ccccc2)S(=O)(=O)N1Cc1ccc(NC2CCN(S(C)(=O)=O)CC2)cc1F (single isomer, unassigned) [Example 239]	0.003
CC[C@H]1CCC(c2ccccc2)S(=O)(=O)N1Cc1ccc(NC2CCN(S(C)(=O)=O)CC2)cc1F (single isomer, unassigned) [Example 240]	0.004
CC(=O)N1CCN(c2ccc(CN3C4CCCC4CC(c4ccccc4)S3(=O)=O)c(F)c2)CC1 (single isomer, unassigned) [Example 248, 1-(4-(4-((2,2-dioxido-3-phenylhexahydro-cyclopenta[c][1,2]thiazin-1(3H)-yl)methyl)-3-fluorophenyl)piper-azin-1-yl)ethanone]	0.007
CS(=O)(=O)N1CCC(Nc2ccc(CN3CC4(CC4)CC(c4ccccc4)S3(=O)=O)c(F)c2)CC1 (single isomer, unassigned) [Example 249, 5-(2-fluoro-4-((1-(methylsulfonyl)piperidin-4-yl)amino)benzyl)-7-phenyl-6-thia-5-azaspiro[2.5]octane 6,6-dioxide]	0.037
CC(=O)N1CCN(c2ccc(CN3C4CCCC4CC(c4ccccc4)S3(=O)=O)c(F)c2)CC1 (single isomer, unassigned) [Example 250, 1-(4-(4-((2,2-dioxido-3-phenylhexahydro-cyclopenta[c][1,2]thiazin-1(3H)-yl)methyl)-3-fluorophenyl)piper-azin-1-yl)ethanone]	0.011
CC(=O)N1CCN(c2ccc(CN3C4CCCC4CC(c4ccccc4)S3(=O)=O)c(F)c2)CC1 (single isomer, unassigned) [Example 251, 1-(4-(4-((2,2-dioxido-3-phenylhexahydro-cyclopenta[c][1,2]thiazin-1(3H)-yl)methyl)-3-fluorophenyl)piper-azin-1-yl)ethanone]	0.219
CS(=O)(=O)N1CCC(Nc2ccc(CN3CC4(CC4)CC(c4ccccc4)S3(=O)=O)c(F)c2)CC1 (single isomer, unassigned) [Example 253, 5-(2-fluoro-4-((1-(methylsulfonyl)piperidin-4-yl)amino)benzyl)-7-phenyl-6-thia-5-azaspiro[2.5]octane 6,6-dioxide]	0.007
O=S1(=O)C(c2ccccc2)CC2(CC2)CN1Cc1ccc(N2CCC(n3cnnc3)CC2)cc1F (single isomer, unassigned) [Example 257, 5-[2-Fluoro-4-(4-[1,2,4]triazol-4-yl-piperidin-1-yl)-benzyl]-7-phenyl-6-thia-5-aza-spiro[2.5]octane 6,6-dioxde]	0.054
CC(=O)N1CCN(c2ccc(CN3CC4(COC4)CC(c4ccccc4)S3(=O)=O)c(F)c2)CC1 (single isomer, unassigned) [Example 258, 1-(4-(4-((7,7-dioxido-8-phenyl-2-oxa-7-thia-6-azaspiro[3.5]nonan-6-yl)methyl)-3-fluorophenyl)piper-azin-1-yl)ethanone]	1.04
O=S1(=O)C(c2ccccc2)CC2(CC2)CN1Cc1ccc(N2CCC(n3cnnc3)CC2)cc1F (single isomer, unassigned) [Example 259, 5-[2-Fluoro-4-(4-[1,2,4]triazol-4-yl-piperidin-1-yl)-benzyl]-7-phenyl-6-thia-5-aza-spiro[2.5]octane 6,6-dioxide]	0.057
CC(=O)N1CCN(c2ccc(CN3CC4(COC4)CC(c4ccccc4)S3(=O)=O)c(F)c2)CC1 (single isomer, unassigned) [Example 266, 1-(4-(4-((7,7-dioxido-8-phenyl-2-oxa-7-thia-6-azaspiro[3.5]nonan-6-yl)methyl)-3-fluorophenyl)piper-azin-1-yl)ethanone]	4.33
C[C@H]1CCC(c2ccccc2)S(=O)(=O)N1Cc1ccc(C(=O)NC2CCOCC2)cc1 (single isomer, unassigned) [Example 267]	2.81
CC(=O)N1CCN(c2ccc(CN3C4CC(C4)CC(c4ccccc4)S3(=O)=O)c(F)c2)CC1 (single isomer, unassigned) [Example 300, 1-{4-[4-(3,3-Dioxo-4-phenyl-3-thia-2-aza-bicyclo[4.1.1]oct-2-ylmethyl)-3-fluoro-phenyl]-piperazin-1-yl}-ethanone]	0.044
CC(=O)N1CCN(c2ccc(CN3C4CC(C4)CC(c4ccccc4)S3(=O)=O)c(F)c2)CC1 (single isomer, unassigned) [Example 301, 1-{4-[4-(3,3-Dioxo-4-pheny-3-thia-2-aza-bicyclo[4.1.1]oct-2-ylmethyl)-3-fluoro-phenyl]-piperazin-1-yl}-ethanone]	0.308
N#CCC(=O)N1CCN(c2ccc(CN3CCCCC(c4ccccc4)S3(=O)=O)c(F)c2)CC1 (single isomer, unassigned) [Example 302, 3-{4-[4-(1,1-Dioxo-7-phenyl-[1,2]thiazepan-2-ylmethyl)-3-fluoro-phenyl]-piperazin-1-yl}-3-oxo-propionitrile]	0.024
N#CCC(=O)N1CCN(c2ccc(CN3CCCCC(c4ccccc4)S3(=O)=O)c(F)c2)CC1 (single isomer, unassigned) [Example 303, 3-{4-[4-(1,1-Dioxo-7-phenyl-[1,2]thiazepan-2-ylmethyl)-3-fluoro-phenyl]-piperazin-1-yl}-3-oxo-propionitrile]	0.086
C[C@H](O)C(=O)N1CCN(c2ccc(CN3CCCCC(c4ccccc4)S3(=O)=O)c(F)c2)CC1 (single isomer, unassigned) [Example 304, 1-{4-[4-(1,1-Dioxo-7-phenyl-[1,2]thiazepan-2-ylmethyl)-3-fluoro-phenyl]-piperazin-1-yl}-2-hydroxy-propan-1-one]	0.038
C[C@H](O)C(=O)N1CCN(c2ccc(CN3CCCCC(c4ccccc4)S3(=O)=O)c(F)c2)CC1 (single isomer, unassigned) [Example 305, 1-{4-[4-(1,1-Dioxo-7-phenyl-[1,2]thiazepan-2-ylmethyl)-3-fluoro-phenyl]-piperazin-1-yl}-2-hydroxy-propan-1-one]	0.165
CC(=O)N1CCN(c2ccc(CN3CCCCC(c4ccccc4)S3(=O)=O)cc2)CC1 (single isomer, unassigned) [Example 306, 1-{4-[4-(1,1-Dioxo-7-phenyl-[1,2]thiazepan-2-ylmethyl)-phenyl]-piperazin-1-yl}-ethanone]	0.087
CC(=O)N1CCN(c2ccc(CN3CCCCC(c4ccccc4)S3(=O)=O)cc2)CC1 (single isomer, unassigned) [Example 307, 1-{4-[4-(1,1-Dioxo-7-phenyl-[1,2]thiazepan-2-ylmethyl)-phenyl]-piperazin-1-yl}-ethanone]	0.227
O=C(CO)N1CCN(c2ccc(CN3CCCCC(c4ccccc4)S3(=O)=O)c(F)c2)CC1 (single isomer, unassigned) [Example 308, 1-{4-[4-(1,1-Dioxo-7-phenyl-[1,2]thiazepan-2-ylmethyl)-3-fluoro-phenyl]-piperazin-1-yl}-2-hydroxy-ethanone]	0.029

More lines, now with the values ahead:

IC50 [µM]	Structure (SMILES)
0.15	C[C@H]1CCC(c2ccccc2)S(=O)(=O)N1Cc1ccc(N2CCC(c3nnc[nH]3)CC2)cc1F (single isomer, unassigned) [Example 225]
0.281	C[C@H]1CCC(c2ccccc2)S(=O)(=O)N1Cc1ccc(N2CCC(c3nnc[nH]3)CC2)cc1F (single isomer, unassigned) [Example 226]
0.021	CC[C@H]1CCC(c2ccccc2)S(=O)(=O)N1Cc1ccc(N2CCC(n3cnnc3)CC2)cc1F (single isomer, unassigned) [Example 228]
0.168	CC[C@H]1CCC(c2ccccc2)S(=O)(=O)N1Cc1ccc(N2CCC(n3cnnc3)CC2)cc1F (single isomer, unassigned) [Example 229]
0.004	C[C@H]1CCC(c2ccccc2)S(=O)(=O)N1Cc1ccc(N2CCC(c3cn[nH]c3)CC2)cc1F (single isomer, unassigned) [Example 242]
0.003	C[C@H]1CCC(c2ccccc2)S(=O)(=O)N1Cc1ccc(N2CCC(c3cn[nH]c3)CC2)cc1F (single isomer, unassigned) [Example 243]
0.024	C[C@H]1CCC(c2ccccc2)S(=O)(=O)N1Cc1ccc(N2CCC(n3ncnn3)CC2)cc1F (single isomer, unassigned) [Example 244]
0.03	CC(=O)N1CCN(c2ccc(CN3[C@@H](C(C)C)CCC(c4ccccc4)S3(=O)=O)c(F)c2)CC1 (single isomer, unassigned) [Example 246]
0.029	CC(=O)N1CCN(c2ccc(CN3[C@@H](C(C)C)CCC(c4ccccc4)S3(=O)=O)c(F)c2)CC1 (single isomer, unassigned) [Example 247]
0.068	CC(=O)N1CCN(c2ccc(CN3C4CCCC4CC(c4ccccc4)S3(=O)=O)c(F)c2)CC1 (single isomer, unassigned) [Example 252, 1-(4-(4-((2,2-dioxido-3-phenylhexahydro-cyclopenta[c][1,2]thiazin-1(3H)-yl)methyl)-3-fluorophenyl)piper-azin-1-yl)ethanone]
0.009	C[C@H]1CCC(c2ccccc2)S(=O)(=O)N1Cc1ccc(N2CCC(c3cnn[nH]3)CC2)cc1F (single isomer, unassigned) [Example 254]
0.012	C[C@H]1CCC(c2ccccc2)S(=O)(=O)N1Cc1ccc(N2CCC(c3cnn[nH]3)CC2)cc1F (single isomer, unassigned) [Example 255]
0.004	C[C@H]1CCC(c2ccccc2)S(=O)(=O)N1Cc1ccc(N2CCC(n3ccnn3)CC2)cc1F (single isomer, unassigned) [Example 256]
